Source: paper PMC6573034 (Nature Communications, 2019)
Entries after “also recorded” stand apart in the source; their conditions may differ. Where two headings read alike, the source gives them in different places.

What was measured:
[1] = target: T1, SfMCT (Syntrophobacter fumaroxidans, UniProt A0LNN5); format: cell-based; conditions: for Relative uptake of [14C]L-lactate (in %): WT SfMCT, competitor 1 mM final concentration, normalized to control without competitor; for reduction of [14C]L-lactate uptake / competition with [14C]L-lactate uptake (in words): competitor 1 mM
T1 construct: expressed in transfected cells; host or cells: E. coli JA202 (MC4100 glcA::cat lldP::kan), plasmid pEXT20-SfMCT-3C-10His
T1 sequence (A0LNN5 1-412): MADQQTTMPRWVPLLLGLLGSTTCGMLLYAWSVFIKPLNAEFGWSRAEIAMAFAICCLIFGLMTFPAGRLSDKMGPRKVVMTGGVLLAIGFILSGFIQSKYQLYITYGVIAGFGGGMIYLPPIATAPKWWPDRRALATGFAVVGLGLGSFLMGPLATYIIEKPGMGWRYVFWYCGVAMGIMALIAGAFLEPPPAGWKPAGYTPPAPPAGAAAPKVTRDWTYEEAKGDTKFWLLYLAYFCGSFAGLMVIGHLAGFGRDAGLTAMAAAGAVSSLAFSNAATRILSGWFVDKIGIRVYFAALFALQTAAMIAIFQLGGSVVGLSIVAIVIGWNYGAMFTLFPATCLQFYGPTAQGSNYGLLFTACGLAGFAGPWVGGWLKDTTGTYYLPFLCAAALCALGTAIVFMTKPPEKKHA
Experimental: (§1) The cultures were grown at 37 °C and 180 r.p.m. in an incubator shaker (Multitron, Infors HT). Protein expression was induced at OD600 ~0.5 by addition of IPTG to a final concentration of 0.25 mM. After 4 h, bacteria were pelleted (5,200 × g, 10 min, room temperature) and resuspended in uptake buffer (20 mM Bis-Tris propane-HCl (pH 6.7), 250 mM KCl) to a bacteria density of OD600 12. […] Furthermore, [3-3 H] propionic acid sodium salt ([^3H]propionate, American Radiolabeled Chemicals, specific activity 30 Ci/mmol), n-[2,3-3 H] butyric acid sodium salt ([^3H]butyrate, American Radiolabeled Chemicals, specific activity 120 Ci/mmol), and [1–14 C] pyruvic acid sodium salt ([^14C]pyruvate, specific activity 0.055 Ci/mmol American Radiolabeled Chemicals) were also used for transport experiments. […] Uptake experiments were performed in 2 ml reaction tubes (Eppendorf) at 30 °C under agitation (1,000 r.p.m., Thermomixer compact, Eppendorf). […] Bacteria were immediately pelleted by centrifugation (21,000 × g, 4 min, room temperature) and washed two times with 900 μl stop buffer. Finally, bacteria were lyzed in 50 μl 5% (w/v) sodium dodecylsulfate and transferred into a white 96-well plate (Optiplate, PerkinElmer). 150 µl of scintillation cocktail (MicroScint 40, PerkinElmer) were added before measuring each reaction for 2 min with a scintillation counter (TopCount NXT, PerkinElmer). For data analysis, the signal of the empty vector was subtracted from the transporter signal. […] Cpm values of each experiment were normalized with respect to the determined upper plateau value, i.e., the fitted upper plateau value corresponds to 100%. The arithmetic average of three independent experiments was calculated. Three independent and normalized pH-dependence curves were then averaged. For data analysis Prism6 (GraphPad Software) was used. […] Equal amounts of bacteria expressing SfMCT variants were loaded on 14% SDS/polyacrylamide gels. His-tagged transporters were detected using an anti-His5 (Qiagen, catalogue number 34660, primary antibody) at a dilution of 1:3,000 and a goat anti-mouse IgG (H + L) HRP conjugate antibody (Biorad, catalogue number 172-1011, secondary antibody) at a dilution of 1:2,500.

[2] = target: T2, SfMCT-F335A (Syntrophobacter fumaroxidans, UniProt A0LNN5, F335A); assay: [14C]L-lactate transport competition assay, SfMCT-F335A; format: cell-based; conditions: competition by 1 mM ACAC
T2 construct: expressed in transfected cells; host or cells: E. coli JA202, pEXT20-SfMCT-3C-10His mutant plasmid
T2 sequence (A0LNN5 whole entry F335A): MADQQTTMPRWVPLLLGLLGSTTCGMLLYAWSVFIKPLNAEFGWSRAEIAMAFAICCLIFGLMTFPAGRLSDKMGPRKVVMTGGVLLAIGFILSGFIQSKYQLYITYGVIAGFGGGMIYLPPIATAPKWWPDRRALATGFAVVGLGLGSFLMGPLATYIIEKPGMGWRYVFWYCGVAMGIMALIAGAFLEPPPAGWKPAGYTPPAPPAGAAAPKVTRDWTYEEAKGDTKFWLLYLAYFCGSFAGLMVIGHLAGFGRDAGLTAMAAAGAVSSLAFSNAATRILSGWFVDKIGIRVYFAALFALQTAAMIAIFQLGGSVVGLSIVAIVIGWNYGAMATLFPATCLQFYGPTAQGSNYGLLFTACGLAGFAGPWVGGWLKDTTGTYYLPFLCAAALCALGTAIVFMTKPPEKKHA
Experimental: The cultures were grown at 37 °C and 180 r.p.m. in an incubator shaker (Multitron, Infors HT). Protein expression was induced at OD600 ~0.5 by addition of IPTG to a final concentration of 0.25 mM. After 4 h, bacteria were pelleted (5,200 × g, 10 min, room temperature) and resuspended in uptake buffer (20 mM Bis-Tris propane-HCl (pH 6.7), 250 mM KCl) to a bacteria density of OD600 12. […] Furthermore, [3-3 H] propionic acid sodium salt ([^3H]propionate, American Radiolabeled Chemicals, specific activity 30 Ci/mmol), n-[2,3-3 H] butyric acid sodium salt ([^3H]butyrate, American Radiolabeled Chemicals, specific activity 120 Ci/mmol), and [1–14 C] pyruvic acid sodium salt ([^14C]pyruvate, specific activity 0.055 Ci/mmol American Radiolabeled Chemicals) were also used for transport experiments. […] Cpm values of each experiment were normalized with respect to the determined upper plateau value, i.e., the fitted upper plateau value corresponds to 100%. The arithmetic average of three independent experiments was calculated. […] His-tagged transporters were detected using an anti-His5 (Qiagen, catalogue number 34660, primary antibody) at a dilution of 1:3,000 and a goat anti-mouse IgG (H + L) HRP conjugate antibody (Biorad, catalogue number 172-1011, secondary antibody) at a dilution of 1:2,500.

[3] = system: vector-transformed E. coli JA202; assay: Uptake of radioligands into vector-transformed bacteria; format: cell-based; conditions: 0.1 µCi radiolabeled monocarboxylate; vector-transformed bacteria
Experimental: The cultures were grown at 37 °C and 180 r.p.m. in an incubator shaker (Multitron, Infors HT). Protein expression was induced at OD600 ~0.5 by addition of IPTG to a final concentration of 0.25 mM. After 4 h, bacteria were pelleted (5,200 × g, 10 min, room temperature) and resuspended in uptake buffer (20 mM Bis-Tris propane-HCl (pH 6.7), 250 mM KCl) to a bacteria density of OD600 12. […] Furthermore, [3-3 H] propionic acid sodium salt ([^3H]propionate, American Radiolabeled Chemicals, specific activity 30 Ci/mmol), n-[2,3-3 H] butyric acid sodium salt ([^3H]butyrate, American Radiolabeled Chemicals, specific activity 120 Ci/mmol), and [1–14 C] pyruvic acid sodium salt ([^14C]pyruvate, specific activity 0.055 Ci/mmol American Radiolabeled Chemicals) were also used for transport experiments. […] Uptake experiments were performed in 2 ml reaction tubes (Eppendorf) at 30 °C under agitation (1,000 r.p.m., Thermomixer compact, Eppendorf). […] Bacteria were immediately pelleted by centrifugation (21,000 × g, 4 min, room temperature) and washed two times with 900 μl stop buffer. Finally, bacteria were lyzed in 50 μl 5% (w/v) sodium dodecylsulfate and transferred into a white 96-well plate (Optiplate, PerkinElmer). 150 µl of scintillation cocktail (MicroScint 40, PerkinElmer) were added before measuring each reaction for 2 min with a scintillation counter (TopCount NXT, PerkinElmer). For data analysis, the signal of the empty vector was subtracted from the transporter signal. […] Cpm values of each experiment were normalized with respect to the determined upper plateau value, i.e., the fitted upper plateau value corresponds to 100%. The arithmetic average of three independent experiments was calculated. Three independent and normalized pH-dependence curves were then averaged. For data analysis Prism6 (GraphPad Software) was used. The expression of SfMCT variants in E. coli JA202 (MC4100 glcA::cat lldP::kan)[15] was verified by Western blotting. Equal amounts of bacteria expressing SfMCT variants were loaded on 14% SDS/polyacrylamide gels. His-tagged transporters were detected using an anti-His5 (Qiagen, catalogue number 34660, primary antibody) at a dilution of 1:3,000 and a goat anti-mouse IgG (H + L) HRP conjugate antibody (Biorad, catalogue number 172-1011, secondary antibody) at a dilution of 1:2,500.

[4] = target: T1, SfMCT; assay: Uptake of [14C]L-lactate and other radiolabeled monocarboxylates into SfMCT expressing E. coli JA202; format: cell-based; conditions: for Uptake of radioligand by SfMCT (cpm): 0.1 µCi radiolabeled monocarboxylate, SfMCT-overexpressing bacteria; for transport by SfMCT (in words): uptake experiment using radiolabeled compound
Experimental: as §1

[5] = substrate: C[C@H](O)C(=O)O; assay: cells, lysate or membranes; format: cell-based, Syntrophobacter fumaroxidans; conditions: other: SfMCT-mediated [14C]L-lactate uptake; average of three independent saturation experiments

## C[C@@H](O)CC(=O)O [3-HBA, (R)-3-hydroxybutyrate]
[1]
  Relative uptake of [14C]L-lactate (in %): 93.0096%
  reduction of [14C]L-lactate uptake: 5–14%

## CC(=O)CC(=O)O [ACAC, acetoacetate]
[2]
  Relative uptake of [14C]L-lactate (in %): 43.19%
[2]; listed as acetoacetate
  Relative uptake of [14C]L-lactate (in %): 43%
[1]
  Relative uptake of [14C]L-lactate (in %): 86.3974%
  reduction of [14C]L-lactate uptake: 5–14%
[1]; listed as acetoacetate
  Relative uptake of [14C]L-lactate (in %): 86%

## N#CC(C#N)=NNc1cccc(Cl)c1 [CCCP, carbonyl cyanide 3-chlorophenylhydrazone, reference compound]
[1]; 20 µM CCCP
  effect on uptake of [14C]L-lactate (in words): completely abolished

## C[C@@H](N)C(=O)O [D-alanine]
[1]
  competition with [14C]L-lactate uptake (in words): absence of any competition

## C[C@H](N)C(=O)O [L-alanine]
[1]
  competition with [14C]L-lactate uptake (in words): absence of any competition

## CC(=O)O [acetate]
[1]
  Relative uptake of [14C]L-lactate (in %): 90.2435%

## CCCC(=O)O [butyrate]
[3]
  Uptake of radioligand by vector (cpm): 197.333 cpm
[4]
  Uptake of radioligand by SfMCT (cpm): 160.333 cpm
  transport by SfMCT (in words): not transported; also recorded: without being transported
[1]
  competition with [14C]L-lactate uptake (in words): significantly reduced

## O=C(O)CC(O)(CC(=O)O)C(=O)O [citrate]
[1]
  reduction of [14C]L-lactate uptake: 5–14%

## O=CO [formate]
[1]
  Relative uptake of [14C]L-lactate (in %): 96.2179%

## O=C(O)/C=C/C(=O)O [fumarate]
[1]
  Relative uptake of [14C]L-lactate (in %): 61.3393%

## O=C(O)CC(=O)O [malonate]
[1]
  Relative uptake of [14C]L-lactate (in %): 91.3566%
  reduction of [14C]L-lactate uptake: 5–14%

## O=C(O)C(=O)O [oxalate]
[1]
  Relative uptake of [14C]L-lactate (in %): 95.2988%
  reduction of [14C]L-lactate uptake: 5–14%

## CCC(=O)O [propionate]
[3]
  Uptake of radioligand by vector (cpm): 198.333 cpm
[4]
  Uptake of radioligand by SfMCT (cpm): 90.6667 cpm
  transport by SfMCT (in words): not transported; also recorded: without being transported
[1]
  Relative uptake of [14C]L-lactate (in %): 58.2752%
  competition with [14C]L-lactate uptake (in words): significantly reduced

## CC(=O)C(=O)O [pyruvate]
[3]
  Uptake of radioligand by vector (cpm): 2551.22 cpm
[4]
  Uptake of radioligand by SfMCT (cpm): 2342.67 cpm
  transport by SfMCT (in words): not transported; also recorded: does not transport

## O=C(O)CCC(=O)O [succinate]
[1]
  Relative uptake of [14C]L-lactate (in %): 57.9601%

## CC(C)[C@@H]1NC(=O)[C@H](C)OC(=O)[C@@H](C(C)C)NC(=O)[C@@H](C(C)C)OC(=O)[C@H](C(C)C)NC(=O)[C@H](C)OC(=O)[C@@H](C(C)C)NC(=O)[C@@H](C(C)C)OC(=O)[C@H](C(C)C)NC(=O)[C@H](C)OC(=O)[C@@H](C(C)C)NC(=O)[C@@H](C(C)C)OC1=O [valinomycin, reference compound]
[1]; 20 µM valinomycin
  effect on transport of [14C]L-lactate (in words): no effect

B1: SfMCT (Syntrophobacter fumaroxidans MPOB) (protein)
chain: MADQQTTMPRWVPLLLGLLGSTTCGMLLYAWSVFIKPLNAEFGWSRAEIAMAFAICCLIFGLMTFPAGRLSDKMGPRKVVMTGGVLLAIGFILSGFIQSKYQLYITYGVIAGFGGGMIYLPPIATAPKWWPDRRALATGFAVVGLGLGSFLMGPLATYIIEKPGMGWRYVFWYCGVAMGIMALIAGAFLEPPPAGWKPAGYTPPAPPAGAAAPKVTRDWTYEEAKGDTKFWLLYLAYFCGSFAGLMVIGHLAGFGRDAGLTAMAAAGAVSSLAFSNAATRILSGWFVDKIGIRVYFAALFALQTAAMIAIFQLGGSVVGLSIVAIVIGWNYGAMFTLFPATCLQFYGPTAQGSNYGLLFTACGLAGFAGPWVGGWLKDTTGTYYLPFLCAAALCALGTAIVFMTKPPEKKHA
notes: expressed in transfected cells; host or cells: E. coli JA202 (MC4100 glcA::cat lldP::kan), plasmid pEXT20-SfMCT-3C-10His
[5]
  Km: 233 ± 22 µM
